These results are taken from patent US10227324B2 (Shanghai Haiyan Pharmaceutical Technology Co., Ltd., priority 2014, dated 2019).

One data set deals with T1, PI3K-γ kinase (p110γ) (Homo sapiens, UniProt P48736).
T1 construct: purchased Invitrogen PV4786
The data set is described as follows: Determination of PI3K kinase activity (ADP Transcreener, fluorescence polarization). The data set is classed as biochemical. The settings on record: Table 1; ATP 10 μM; read-out: PI3K-γ/nM (IC50 of inhibitory activity against PI3K kinase). In a few lines: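 Each 25 μL reaction held PI3K enzyme (p110α/p85α 3 ng, p110β/p85α 60 ng, p110δ/p85α 90 ng, or p110γ 100 ng), 10 μM ATP, 30 μM PIP2:PS and 2% DMSO, incubated 1 h at 25 °C. Compounds were tested in duplicate across a 3-fold series, 0.00046–1 μM as prepared. ADP was detected by Transcreener fluorescence polarization, quantified against an ADP/ATP standard curve, and IC50 fitted.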
For orientation: Fluorescence polarisation rises when a labelled molecule tumbles more slowly, as on binding a larger partner.

A further data set relates to MCF-7 cells. The data set is described as follows: Cell inhibitory activity detected by MTT assay, MCF-7. The data set is classed as cell-based. The settings on record: Homo sapiens, MCF7, 72 h, read-out: MCF-7 cell (IC50/nM), cell growth inhibition. Summed up:
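MCF-7 cells in DMEM + 10% FBS were treated after adherence with compounds at 8 concentrations (0.0046–10 μM) for 72 h at 37 °C, 5% CO2.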
For orientation: Tetrazolium dyes change colour on reduction, which living cells bring about.

Data set [1] is described as follows: Metabolism stability assay in liver microsomes. Type of data set: in vitro ADME, mouse. The settings on record: liver microsomal metabolism in mice. On the procedure:
Buffer A: 1 L solution of 100 mM potassium dihydrogen phosphate containing 1 mM EDTA (Sigma, V900157-100G) was prepared. Buffer B: 1 L solution of 100 mM dipotassium hydrogen phosphate containing 1 mM EDTA was prepared. Buffer C: 700 mL of buffer B was taken out and titrated with buffer A to pH 7.4.
2.1 10 μl of 10 mM compound to be tested and 10 μl of 10 mM ketanserin were taken out and 190 μl of pure acetonitrile was added to each of them to prepare 500 μM compound to be tested and ketanserin, respectively.
2.2 20 μl (20 mg/mL) of liver microsomes (XENOTECH, H0610) stock solution was added to 513.4 μl of buffer C on wet ice. 0.75 mg/mL liver microsomal solution was obtained.
2.3 1.5 μl of each of the above-mentioned compound to be tested and ketanserin solution was added to 498.5 μl of liver microsomal solution (0.7 5 mg/mL) respectively on wet ice. 1.5 μM mixed solution of compound to be tested and 1.5 μM mixed solution of ketanserin were obtained.
2.4 At the time points 0, 5, 15, 30, 45, and 60 min, 30 μl of the mixed solution of compound to be tested and 30 μl of the mixed solution of ketanserin were dispensed into the reaction plate on wet ice, respectively.
2.5 5 mg reduced coenzyme II (Roche, 10621706001) was weighed and dissolved in 1 mL of buffer C. 6 mM reduced coenzyme II solution was obtained. The reduced coenzyme II solution was dispensed into the reaction plate.
2.6 Imipramine was dissolved to give a 10 mM solution. 10 μl imipramine solution was added to 100 mL of blank acetonitrile to generate the internal reference.
2.7 At 0 min, 135 μL of iced acetonitrile (Merck, UN 1648) containing the internal reference was added to each well and then 15 μL of buffer C was added.
2.8 The reaction plate was placed into a 37° C. water bath incubator for 5 min. In the reaction plate, 15 μL of reduced coenzyme II solution was added to each well to initiate the reaction, and the time keeping was started. At the time points of 5, 15, 30, 45, and 60 min, 135 μL of iced acetonitrile containing the internal reference was added to each well to terminate the reaction.
2.9 The reaction plate was sealed with an aluminum film, placed on a vibration mixer and shaken at 500 rpm for 5 min. The plate was then centrifuged in a centrifuge at 3750 rp for 15 min.
2.10 The sample was diluted with pure water in accordance with the ratio of 1:1 and detected by LC/MS.
Half-life: 0.693/K (the slope by plotting based on the incubation time and logarithm of the concentration value)
Clearance ratio: (0.693/half-life)*(1/protein concentration (0.5 mg/mL))*(proportional factor)
Wherein, the K value and the proportional factor were calculated by those skilled in the art according to the methods described in the prior art and contained in the instructions of the liver microsome product.
For orientation: Microsomes from liver hold many membrane-bound enzymes, among them those of drug oxidation.

Structures are written as SMILES.

T1 sequence (P48736 whole entry): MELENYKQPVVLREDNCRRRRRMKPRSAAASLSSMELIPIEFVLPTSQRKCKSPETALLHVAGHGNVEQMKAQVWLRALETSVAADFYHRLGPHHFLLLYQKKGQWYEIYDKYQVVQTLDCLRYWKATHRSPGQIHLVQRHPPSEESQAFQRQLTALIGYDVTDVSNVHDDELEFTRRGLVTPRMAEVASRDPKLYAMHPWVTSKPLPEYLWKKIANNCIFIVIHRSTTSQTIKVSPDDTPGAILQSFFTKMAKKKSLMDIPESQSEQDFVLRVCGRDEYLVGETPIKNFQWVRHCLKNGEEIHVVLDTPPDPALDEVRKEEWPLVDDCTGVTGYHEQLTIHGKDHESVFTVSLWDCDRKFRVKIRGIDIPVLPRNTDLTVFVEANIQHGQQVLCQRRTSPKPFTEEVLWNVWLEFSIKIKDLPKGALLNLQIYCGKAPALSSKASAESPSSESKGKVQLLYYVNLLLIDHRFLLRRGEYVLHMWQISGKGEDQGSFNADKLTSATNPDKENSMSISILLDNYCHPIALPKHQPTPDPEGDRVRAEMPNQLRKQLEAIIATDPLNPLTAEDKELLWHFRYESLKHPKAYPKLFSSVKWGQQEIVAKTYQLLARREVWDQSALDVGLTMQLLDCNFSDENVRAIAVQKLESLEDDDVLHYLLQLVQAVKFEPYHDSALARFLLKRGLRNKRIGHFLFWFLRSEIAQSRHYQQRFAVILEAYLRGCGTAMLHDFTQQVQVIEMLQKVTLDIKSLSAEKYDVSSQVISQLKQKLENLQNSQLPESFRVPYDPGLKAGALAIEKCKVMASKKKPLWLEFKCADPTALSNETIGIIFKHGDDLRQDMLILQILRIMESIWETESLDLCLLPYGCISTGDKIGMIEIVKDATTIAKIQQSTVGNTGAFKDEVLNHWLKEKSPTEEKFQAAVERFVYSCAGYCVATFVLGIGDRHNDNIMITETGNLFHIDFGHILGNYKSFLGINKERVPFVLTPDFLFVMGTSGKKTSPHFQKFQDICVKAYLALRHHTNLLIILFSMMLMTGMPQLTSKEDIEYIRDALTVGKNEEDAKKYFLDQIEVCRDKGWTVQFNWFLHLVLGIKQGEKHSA

On to `C[C@H]1COCCN1c1nc(-c2cnc(N)cc2Cl)cc(C2(S(C)(=O)=O)CCC2)n1` [Compound S-31], for which the IC50 was 148 nM on PI3K-γ kinase (p110γ) and 45 nM with MCF-7 cells.

Turning to `CC(C)S(=O)(=O)C1(c2cc(-c3cnc(N)cc3C(F)(F)F)nc(N3CCOC[C@@H]3C)n2)CCC1` [Compound S-13, (S)-5-(6-(1-(isopropylsulfonyl)cyclobutyl)-2-(3-methylmorpholino)pyrimidin-4-yl)-4-(trifluoromethyl)pyridin-2-amine], the IC50 was above 3000 nM at PI3K-γ kinase (p110γ) and 153 nM in the data set on MCF-7 cells.

As for `CS(=O)(=O)C1(c2cc(-c3cnc(N)cc3F)nc(N3CCOCC3)n2)CC1` [Compound S-82], the IC50 is 116 nM on PI3K-γ kinase (p110γ) and 27 nM in the data set with MCF-7 cells. The “Clearance ratio (mL/min/kg) mouse” value in data set [1] came to 39.75 mL/min/kg.

For `CC(C)(c1cc(-c2cnc(N)nc2C(F)(F)F)nc(N2CCOCC2)n1)S(C)(=O)=O` [Compound S-45], the IC50 at PI3K-γ kinase (p110γ) came to 78 nM; in the data set with MCF-7 cells, 329 nM. For the same molecule, the “Clearance ratio (mL/min/kg) mouse” value in data set [1] is recorded as 89.54 mL/min/kg.

As for `CCS(=O)(=O)C1(c2cc(-c3cnc(N)cc3C(F)(F)F)nc(N3CCOCC3)n2)CCC1` [Compound S-49, 5-(6-(1-(ethylsulfonyl)cyclobutyl)-2-morpholinopyrimidin-4-yl)-4-(trifluoromethyl)pyridin-2-amine], the IC50 was 2020 nM at PI3K-γ kinase (p110γ) and 187 nM in the data set with MCF-7 cells.

Take `CS(=O)(=O)C1(c2cc(-c3cnc(N)cc3C(F)(F)F)nc(N3CCOCC3)n2)CCCC1` [Compound S-10]: the values for the IC50 at PI3K-γ kinase (p110γ) and in the data set with MCF-7 cells were 592 nM and 340 nM, respectively.

In the case of `CS(=O)(=O)C(F)(F)c1cc(-c2cnc(N)cc2Cl)nc(N2CCOCC2)n1` [Compound S-54, 4-chloro-5-(6-(difluoro(methylsulfonyl)methyl)-2-morpholinopyrimidin-4-yl)pyridin-2-amine], the IC50 at PI3K-γ kinase (p110γ) is 199 nM; in the data set with MCF-7 cells, 159 nM.

As for `CS(=O)(=O)C1(c2cc(N3CCOCC3)nc(-c3cnc(N)cc3C(F)(F)F)n2)CC1` [reference compound], the IC50 on PI3K-γ kinase (p110γ) is above 3000 nM; in the data set with MCF-7 cells, 639 nM.

In the case of `C[C@@H]1COCCN1c1nc(-c2cnc(N)cc2Cl)cc(C(C)(C)S(C)(=O)=O)n1` [Compound S-67], the IC50 was found to be 113 nM at PI3K-γ kinase (p110γ) and 105 nM in the data set on MCF-7 cells.

For the molecule `CC(C)(c1cc(-c2cnc(N)cc2Cl)nc(N2CCOCC2)n1)S(C)(=O)=O` [Compound S-38, 4-chloro-5-(6-(2-(methylsulfonyl)prop-2-yl)-2-morpholinopyrimidin-4-yl)pyridin-2-amine], the IC50 was 369 nM at PI3K-γ kinase (p110γ) and 180 nM in the data set with MCF-7 cells. In addition, the “Clearance ratio (mL/min/kg) mouse” value in data set [1] stood at 103.77 mL/min/kg.

As for `CCS(=O)(=O)C1(c2cc(-c3cnc(N)cc3C(F)(F)F)nc(N3CCOC[C@@H]3C)n2)CCC1` [Compound S-23], the IC50 at PI3K-γ kinase (p110γ) was 525 nM; with MCF-7 cells, 246 nM.

`Nc1cc(Cl)c(-c2cc(C3(S(=O)(=O)c4ccccc4F)CC3)nc(N3CCOCC3)n2)cn1` [Compound S-66]: the values for the IC50 at PI3K-γ kinase (p110γ) and in the data set on MCF-7 cells were 160 nM and 212 nM, respectively.

For `C[C@H]1COCCN1c1nc(-c2cnc(N)cc2F)cc(C(C)(C)S(C)(=O)=O)n1` [Compound S-84], the IC50 worked out at 219 nM at PI3K-γ kinase (p110γ) and 15 nM in the data set with MCF-7 cells.

Take `COC(C)(C)c1cc(-c2cnc(N)cc2Cl)nc(N2CCOC[C@@H]2C)n1` [Compound S-75]: the IC50 on PI3K-γ kinase (p110γ) was determined as 654 nM; with MCF-7 cells it was 131 nM.

Consider `Nc1cc(C(F)(F)F)c(-c2cc(C3(S(=O)(=O)c4ccccc4F)CC3)nc(N3CCOCC3)n2)cn1` [Compound S-58], for which the IC50 on PI3K-γ kinase (p110γ) is 121 nM; in the data set with MCF-7 cells, 184 nM.

`CC(C)S(=O)(=O)C1(c2cc(-c3cnc(N)cc3C(F)(F)F)nc(N3CCOCC3)n2)CCC1` [Compound S-19]: the IC50 at PI3K-γ kinase (p110γ) was above 3000 nM.

Turning to `CS(=O)(=O)C1(c2cc(-c3cnc(N)nc3C(F)(F)F)nc(N3CCOCC3)n2)CC1` [Compound S-46], the IC50 was 96 nM at PI3K-γ kinase (p110γ) and 301 nM in the data set with MCF-7 cells. In data set [1], the “Clearance ratio (mL/min/kg) mouse” value is 100.1 mL/min/kg.

As for `Nc1cc(C(F)(F)F)c(-c2cc(C3(S(=O)(=O)c4ccccc4)CCC3)nc(N3CCOCC3)n2)cn1` [Compound S-20], on PI3K-γ kinase (p110γ), the IC50 worked out at 1160 nM. In addition, the “Clearance ratio (mL/min/kg) mouse” value in data set [1] amounted to 5641.44 mL/min/kg.

On to `CC(C)S(=O)(=O)C1(c2cc(-c3cnc(N)cc3F)nc(N3CCOCC3)n2)CC1` [Compound S-86], for which the IC50 stood at 192 nM at PI3K-γ kinase (p110γ) and 29 nM with MCF-7 cells.

As for `COC(C)(C)c1cc(-c2cnc(N)cc2Cl)nc(N2CCOCC2)n1` [Compound S-76], the IC50 at PI3K-γ kinase (p110γ) is 228 nM; with MCF-7 cells, 66 nM.

As to `C[C@H]1COCCN1c1nc(-c2cnc(N)cc2C(F)(F)F)cc(C(C)(C)S(C)(=O)=O)n1` [Compound S-41], the IC50 at PI3K-γ kinase (p110γ) stood at 331 nM; with MCF-7 cells, 170 nM.

Turning to `CCS(=O)(=O)C1(c2cc(-c3cnc(N)cc3F)nc(N3CCOCC3)n2)CC1` [Compound S-85], the IC50 was 244 nM on PI3K-γ kinase (p110γ) and 25 nM in the data set with MCF-7 cells.

On to `CC(C)(c1cc(-c2cnc(N)cc2F)nc(N2CCOCC2)n1)S(C)(=O)=O` [Compound S-81], for which the IC50 on PI3K-γ kinase (p110γ) was found to be 181 nM; in the data set with MCF-7 cells, 104 nM.

Turning to `C[C@H]1COCCN1c1nc(-c2ccc(N)nc2)cc(C2(S(C)(=O)=O)CCC2)n1` [Compound S-32], the IC50 worked out at 923 nM on PI3K-γ kinase (p110γ) and 73 nM in the data set with MCF-7 cells.

With `C[C@H]1COCCN1c1nc(-c2cnc(N)nc2)cc(C2(S(C)(=O)=O)CCC2)n1` [Compound S-33], the results for the IC50 at PI3K-γ kinase (p110γ) and in the data set with MCF-7 cells were 112 nM and 79 nM, respectively.

Regarding `Nc1cc(F)c(-c2cc(C3(S(=O)(=O)C4CC4)CC3)nc(N3CCOCC3)n2)cn1` [Compound S-88], the IC50 on PI3K-γ kinase (p110γ) turned out to be 98 nM; in the data set with MCF-7 cells, 102 nM.

With `C[C@@H]1COCCN1c1nc(-c2cnc(N)cc2Cl)cc(C2(S(C)(=O)=O)CC2)n1` [Compound S-68], the IC50 on PI3K-γ kinase (p110γ) stood at 184 nM; in the data set on MCF-7 cells it was 94 nM.

Turning to `CS(=O)(=O)C1(c2cc(-c3cnc(N)cc3Cl)nc(N3CCOCC3)n2)CC1` [Compound S-37, 4-chloro-5-(6-(1-(methylsulfonyl)cyclopropyl)-2-morpholinopyrimidin-4-yl)pyridin-2-amine], the IC50 on PI3K-γ kinase (p110γ) is 114 nM; with MCF-7 cells it was 258 nM.

For the molecule `CS(=O)(=O)C1(c2cc(-c3cnc(N)cc3C(F)(F)F)nc(N3CCOCC3)n2)CCC1` [Compound S-4], the IC50 on PI3K-γ kinase (p110γ) is 354 nM. For the same molecule, in data set [1], the “Clearance ratio (mL/min/kg) mouse” value was determined as 442.63 mL/min/kg.

As to `CC(C)S(=O)(=O)C1(c2cc(-c3cnc(N)cc3C(F)(F)F)nc(N3CCOCC3)n2)CC1` [Compound S-18], the IC50 at PI3K-γ kinase (p110γ) was 957 nM; with MCF-7 cells it was 437 nM.

Consider `C[C@H]1COCCN1c1nc(-c2cnc(N)cc2F)cc(C2(S(C)(=O)=O)CC2)n1` [Compound S-83], for which the figures for the IC50 on PI3K-γ kinase (p110γ) and in the data set on MCF-7 cells were 204 nM and 11 nM, respectively.

With `COC(C)(C)c1cc(-c2cnc(N)cc2C(F)(F)F)nc(N2CCOCC2)n1` [Compound S-71, 5-(6-(2-methoxypropan-2-yl)-2-morpholinopyrimidin-4-yl)-4-(trifluoromethyl) pyridin-2-amine], the IC50 came out at 1030 nM on PI3K-γ kinase (p110γ) and 436 nM with MCF-7 cells.

As to `C[C@H]1COCCN1c1nc(-c2cnc(N)nc2C(F)(F)F)cc(C2(S(C)(=O)=O)CCC2)n1` [Compound S-30], the IC50 at PI3K-γ kinase (p110γ) was 141 nM; with MCF-7 cells it was 101 nM.

Consider `C[C@H]1COCCN1c1nc(-c2cnc(N)cc2C(F)(F)F)cc(C2(S(C)(=O)=O)CCC2)n1` [Compound S-9], for which the IC50 on PI3K-γ kinase (p110γ) is 155 nM; with MCF-7 cells, 78 nM.
